From patent US7427627B2, “N-(4-(4-methylthiazol-5-yl) pyrimidin-2-yl)-N-phenylamines as antiproliferative compounds” (Cyclacel Limited, priority 2001, dated 2008)
Where two headings read alike, the source gives them in different places.

What was measured:
SK-N-MC = assay: 72-h MTT assay, SK-N-MC; type: cell-based; settings: Homo sapiens, read-out: 72-h MTT IC50 SK-N-MC, Table 3, Neuroblastoma
Protocol: (§1) The compounds from the examples above were subjected to a standard cellular proliferation assay using human tumour cell lines obtained from the ATCC (American Type Culture Collection, 10801 University Boulevard, Manessas, Va. 20110-2209, USA). Standard 72-h MTT (thiazolyl blue; 3-[4,5-dimethylthiazol-2-yl]-2,5-diphenyltetrazolium bromide) assays were performed (Haselsberger, K.; Peterson, D. C.; Thomas, D. G.; Darling, J. L. Anti Cancer Drugs 1996, 7, 331-8; Loveland, B. E.; Johns, T. G.; Mackay, I. R.; Vaillant, F.; Wang, Z. X.; Hertzog, P. J. Biochemistry International 1992, 27, 501-10). In short: cells were seeded into 96-well plates according to doubling time and incubated overnight at 37° C. Test compounds were made up in DMSO and a 1/3 dilution series prepared in 100 μL cell media, added to cells (in triplicates) and incubated for 72 ho at 37° C. MTT was made up as a stock of 5 mg/mL in cell media and filter-sterilised. Media was removed from cells followed by a wash with 200 μL PBS. MTT solution was then added at 20 μL per well and incubated in the dark at 37° C. for 4 h. MTT solution was removed and cells again washed with 200 μL PBS. MTT dye was solubilised with 200 μL per well of DMSO with agitation.

WI38 = assay: 72-h MTT assay, WI38; type: cell-based; settings: Homo sapiens, WI-38, 72 h, read-out: 72-h MTT IC50 WI38; Table 3; Foetal lung (non-transformed)
Protocol: as §1

HL60 = assay: 72-h MTT assay, HL60; type: cell-based; settings: Homo sapiens, HL-60, 72 h, read-out: 72-h MTT IC50 HL60; Table 3; Promyelocytic leukaemia
Protocol: as §1

HCT-116 = assay: 72-h MTT assay, HCT-116; type: cell-based; settings: Homo sapiens, HCT-116, 72 h, read-out: 72-h MTT IC50 HCT-116; Table 3; Colon
Protocol: as §1

Messa = assay: 72-h MTT assay, Messa; type: cell-based; settings: Homo sapiens, MES-SA, read-out: 72-h MTT IC50 Messa, Table 3, Uterine
Protocol: as §1

SKUT-1 = assay: 72-h MTT assay, SKUT-1; type: cell-based; settings: Homo sapiens, SK-UT-1, 72 h, read-out: 72-h MTT IC50 SKUT-1; Table 3; Leiomyosarcoma
Protocol: as §1

tumour cells = assay: 72-h MTT assay, mean over tumour cell lines; type: cell-based; settings: Homo sapiens, Table 3
Protocol: as §1

AGS = assay: 72-h MTT assay, AGS; type: cell-based; settings: Homo sapiens, read-out: 72-h MTT IC50 AGS, Table 3, Gastric adenocarcinoma
Protocol: as §1

Hela = assay: 72-h MTT assay, Hela; type: cell-based; settings: Homo sapiens, read-out: 72-h MTT IC50 Hela, Table 3, Cervix
Protocol: as §1

IMR-90 = assay: 72-h MTT assay, IMR-90; type: cell-based; settings: Homo sapiens, IMR-90, 72 h, read-out: 72-h MTT IC50 IMR-90; Table 3; Foetal lung fibroblast (non-transformed)
Protocol: as §1

CDK4/cyclin D1 = CDK4/cyclin D1 (Homo sapiens, UniProt P11802); assay: Kinase assay CDK4/cyclin D1;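 note: Enzyme: His6-tagged recombinant human CDK4 produced in baculovirus-infected Sf9 insect cells and purified by metal-chelate chromatography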
Messa-Dx5 = assay: 72-h MTT assay, Messa-Dx5; type: cell-based; settings: Homo sapiens, MES-SA/Dx5, 72 h, read-out: 72-h MTT IC50 Messa-Dx5; Table 3; Uterine
Protocol: as §1

DU-145 = assay: 72-h MTT assay, DU-145; type: cell-based; settings: Homo sapiens, DU-145, 72 h, read-out: 72-h MTT IC50 DU-145; Table 3; Prostate
Protocol: as §1

A549 = assay: 72-h MTT cytotoxicity assay, A549; type: cell-based, human; settings: Homo sapiens
Protocol: In short: cells were seeded into 96-well plates according to doubling time and incubated overnight at 37° C. Test compounds were made up in DMSO and a 1/3 dilution series prepared in 100 μL cell media, added to cells (in triplicates) and incubated for 72 ho at 37° C. MTT was made up as a stock of 5 mg/mL in cell media and filter-sterilised. Media was removed from cells followed by a wash with 200 μL PBS. MTT solution was then added at 20 μL per well and incubated in the dark at 37° C. for 4 h. MTT solution was removed and cells again washed with 200 μL PBS. MTT dye was solubilised with 200 μL per well of DMSO with agitation.

CCRF-CEM = assay: 72-h MTT assay, CCRF-CEM; type: cell-based; settings: Homo sapiens, read-out: 72-h MTT IC50 CCRF-CEM, Table 3, Leukaemia
Protocol: as §1

HT29 = assay: 72-h MTT cytotoxicity assay, HT29; type: cell-based; settings: Homo sapiens
Protocol: as §1

nci-H460 = assay: 72-h MTT assay, nci-H460; type: cell-based; settings: Homo sapiens, NCI-H460, 72 h, read-out: 72-h MTT IC50 nci-H460; Table 3; Lung
Protocol: as §1

SKUT-1B = assay: 72-h MTT assay, SKUT-1B; type: cell-based; settings: Homo sapiens, Skut1B, read-out: 72-h MTT IC50 SKUT-1B, Table 3, Leiomyosarcoma
Protocol: as §1

Lovo = assay: 72-h MTT assay, Lovo; type: cell-based; settings: Homo sapiens, read-out: 72-h MTT IC50 Lovo, Table 3, Colon
Protocol: as §1

CDK2/cyclin E = molecular target: T1, CDK2/cyclin E (Homo sapiens, UniProt P24941); assay: Kinase assay CDK2/cyclin E; type: biochemical; settings: Table 1; read-out: Kinase inhibition, IC50 (μM) CDK2/E
T1 construct: His6

H1299 = assay: 72-h MTT assay, H1299; type: cell-based; settings: Homo sapiens, NCI-H1299, 72 h, read-out: 72-h MTT IC50 H1299; Table 3; Lung
Protocol: as §1

K562 = assay: 72-h MTT assay, K562; type: cell-based; settings: Homo sapiens, K562, 72 h, read-out: 72-h MTT IC50 K562; Table 3; Chronic myelogenous leukaemia
Protocol: as §1

Saos-2 = assay: 72-h MTT cytotoxicity assay, Saos-2; type: cell-based; settings: Homo sapiens
Protocol: as §1

Hs27 = assay: 72-h MTT assay, Hs27; type: cell-based; settings: Homo sapiens, HS27, 72 h, read-out: 72-h MTT IC50 Hs27; Table 3; Foreskin fibroblast (non-transformed)
Protocol: as §1

Hacat = assay: 72-h MTT assay, Hacat; type: cell-based; settings: Homo sapiens, read-out: 72-h MTT IC50 Hacat, Table 3, Skin keratinocytes
Protocol: as §1

[1] = molecular target: glycogen synthase kinase 3β (Homo sapiens, UniProt P49841); assay: Kinase specificity assay GSK3β; type: biochemical; settings: Table 2
protein kinase C α = molecular target: T2, protein kinase C α (Homo sapiens, UniProt P17252); assay: Kinase specificity assay PKCα; type: biochemical; settings: Table 2
T2 construct: His6
Protocol: PKCα kinase activity may be measured by the incorporation of radio-labeled phosphate in Histone 3, as described. The reaction mixture (total volume 65 μl) consist of 50 mM Tris-HCl, 1 mM Calcium acetate, 3 mM DTT, 0.03 mg/ml Phosphatidylserine, 2.4 μg/ml PMA, 0.04% NP40, 12 mM Mg/Cl, purified PKCα-100 ng, Histone 3, 0.2 mg/ml, 100 μM ATP, 0.2 μCi [γ-^32P]-ATP. The reaction is carried over 15 min at 37° C. in microplate shaker and is stopped by adding 10 μl 75 mM orthophosphoric acid and placing the plate on ice. 50 μl of the reaction mixture is transferred onto P81 filterplate and after washing off the free radioactive phosphate (3 times with 200 μl 75 mM orthophosphoric acid per well) 50 μl of scintillation liquid (Microscint 40) were added to each well and the radioactivity is measured on Scintillation counter (Topcount, HP).

[2] = molecular target: extracellular-signal-regulated kinase 2 (Homo sapiens, UniProt P28482); assay: Kinase specificity assay ERK-2; type: biochemical; settings: Table 2
[3] = molecular target: p70 ribosomal protein S6 kinase (Homo sapiens, UniProt P23443); assay: Kinase specificity assay p70-S6K; type: biochemical; settings: Table 2
Ableson tyrosine kinase = Ableson tyrosine kinase (Homo sapiens, UniProt P00519); assay: Kinase specificity assay Abl; type: biochemical; settings: Table 2
[4] = molecular target: stress-activated protein kinase 2a (Homo sapiens, UniProt Q16539); assay: Kinase specificity assay SAPK2a; type: biochemical; settings: Table 2
[5] = molecular target: calmodulin-dependent kinase II; settings: read-out: Kinase specificity IC50 Cam-KII; Table 2
protein kinase B = protein kinase B (Homo sapiens, UniProt P31749); assay: Kinase specificity assay Akt/PKB; type: biochemical; settings: Table 2
[6] = molecular target: CDK7-cyclin H-MAT 1 complex (Homo sapiens, UniProt P50613); assay: Kinase specificity assay CDK7/H; type: biochemical; settings: Table 2
polo-like kinase 1 = polo-like kinase 1 (Homo sapiens, UniProt P53350); assay: Kinase specificity assay Plk1; type: biochemical; settings: Table 2
SJSA-1 = assay: 72-h MTT assay, SJSA-1; type: cell-based; settings: Homo sapiens, SJSA-1, 72 h, read-out: 72-h MTT IC50 SJSA-1; Table 3; Osteogenic sarcoma
Protocol: as §1

MCF-7 = assay: 72-h MTT assay, MCF-7; type: cell-based; settings: Homo sapiens, MCF7, 72 h, read-out: 72-h MTT IC50 MCF-7; Table 3; Breast
Protocol: as §1

[7] = A549, 72 h, read-out: 72-h MTT IC50 A549, Table 3, Lung
[8] = A549, read-out: 72-h MTT in vitro IC50 (μM) A549, Table 1, 72 h
[9] = HT-29, 72 h, read-out: 72-h MTT IC50 HT29, Table 3, Colon
[10] = HT-29, read-out: 72-h MTT in vitro IC50 (μM) HT29, Table 1, 72 h
[11] = SAOS-2, 72 h, read-out: 72-h MTT IC50 Saos-2, Table 3, Bone osteosarcoma
[12] = SAOS-2, read-out: 72-h MTT in vitro IC50 (μM) Saos-2, Table 1, 72 h

CDK4/cyclin D1, sequence (P11802 whole entry): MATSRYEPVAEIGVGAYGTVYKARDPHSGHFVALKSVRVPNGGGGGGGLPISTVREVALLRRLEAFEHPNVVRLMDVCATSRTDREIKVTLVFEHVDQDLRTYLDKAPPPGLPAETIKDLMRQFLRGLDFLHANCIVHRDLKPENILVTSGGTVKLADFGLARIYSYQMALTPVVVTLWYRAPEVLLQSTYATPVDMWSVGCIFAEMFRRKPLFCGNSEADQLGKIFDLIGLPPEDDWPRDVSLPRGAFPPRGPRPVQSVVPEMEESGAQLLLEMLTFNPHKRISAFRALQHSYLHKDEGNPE
CDK4/cyclin D1, sequence (P24385 whole entry partner): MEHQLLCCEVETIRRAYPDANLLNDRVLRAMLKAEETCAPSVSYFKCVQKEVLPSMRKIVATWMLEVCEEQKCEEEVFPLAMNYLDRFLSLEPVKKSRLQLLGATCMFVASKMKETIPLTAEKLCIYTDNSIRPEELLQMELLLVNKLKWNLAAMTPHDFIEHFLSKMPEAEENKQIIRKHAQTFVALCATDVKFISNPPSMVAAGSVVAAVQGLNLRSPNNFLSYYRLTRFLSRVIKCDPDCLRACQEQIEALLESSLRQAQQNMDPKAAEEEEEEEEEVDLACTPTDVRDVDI
protein kinase B, sequence (P31749 whole entry): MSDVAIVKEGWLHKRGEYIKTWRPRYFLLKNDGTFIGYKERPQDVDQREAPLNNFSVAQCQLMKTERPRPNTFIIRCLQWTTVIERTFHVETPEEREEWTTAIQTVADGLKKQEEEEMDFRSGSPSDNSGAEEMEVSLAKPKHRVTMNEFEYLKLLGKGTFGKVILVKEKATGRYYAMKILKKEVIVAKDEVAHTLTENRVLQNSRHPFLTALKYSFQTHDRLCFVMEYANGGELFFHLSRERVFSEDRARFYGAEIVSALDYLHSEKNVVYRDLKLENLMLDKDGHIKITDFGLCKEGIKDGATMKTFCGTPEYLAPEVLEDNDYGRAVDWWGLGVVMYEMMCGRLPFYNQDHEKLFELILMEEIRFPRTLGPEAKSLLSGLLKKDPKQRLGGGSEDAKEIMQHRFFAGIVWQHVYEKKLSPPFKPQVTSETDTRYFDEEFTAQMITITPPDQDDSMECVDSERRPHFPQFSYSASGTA
polo-like kinase 1, sequence (P53350 whole entry): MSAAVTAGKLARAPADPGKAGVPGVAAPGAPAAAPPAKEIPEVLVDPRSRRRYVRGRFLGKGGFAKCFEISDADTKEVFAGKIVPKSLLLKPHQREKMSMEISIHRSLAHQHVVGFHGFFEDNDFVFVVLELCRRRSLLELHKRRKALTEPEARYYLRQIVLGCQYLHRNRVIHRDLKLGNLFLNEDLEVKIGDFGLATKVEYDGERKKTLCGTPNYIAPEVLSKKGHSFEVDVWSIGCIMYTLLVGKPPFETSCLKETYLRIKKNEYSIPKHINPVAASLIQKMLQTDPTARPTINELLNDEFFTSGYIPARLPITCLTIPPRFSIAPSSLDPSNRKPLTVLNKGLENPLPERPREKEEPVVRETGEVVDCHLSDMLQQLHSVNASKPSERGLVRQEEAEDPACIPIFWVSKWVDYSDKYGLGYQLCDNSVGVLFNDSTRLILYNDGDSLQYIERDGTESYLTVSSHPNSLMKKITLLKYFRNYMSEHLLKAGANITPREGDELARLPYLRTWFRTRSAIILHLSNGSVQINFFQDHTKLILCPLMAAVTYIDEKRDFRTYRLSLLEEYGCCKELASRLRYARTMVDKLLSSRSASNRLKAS
p70 ribosomal protein S6 kinase, sequence (P23443 24-525): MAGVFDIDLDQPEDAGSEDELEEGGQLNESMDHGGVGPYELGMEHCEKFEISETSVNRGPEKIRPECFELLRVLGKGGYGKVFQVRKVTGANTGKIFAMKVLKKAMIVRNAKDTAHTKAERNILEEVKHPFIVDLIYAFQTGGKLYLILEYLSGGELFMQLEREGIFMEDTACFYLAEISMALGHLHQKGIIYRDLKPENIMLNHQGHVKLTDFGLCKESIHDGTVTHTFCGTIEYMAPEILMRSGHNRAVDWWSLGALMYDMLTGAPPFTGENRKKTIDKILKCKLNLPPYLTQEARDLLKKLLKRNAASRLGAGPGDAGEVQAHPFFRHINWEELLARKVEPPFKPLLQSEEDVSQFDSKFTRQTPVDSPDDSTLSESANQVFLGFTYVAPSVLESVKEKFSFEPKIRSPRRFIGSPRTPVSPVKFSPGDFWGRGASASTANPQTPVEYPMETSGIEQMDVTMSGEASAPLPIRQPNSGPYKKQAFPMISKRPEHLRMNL
glycogen synthase kinase 3β, sequence (P49841 whole entry): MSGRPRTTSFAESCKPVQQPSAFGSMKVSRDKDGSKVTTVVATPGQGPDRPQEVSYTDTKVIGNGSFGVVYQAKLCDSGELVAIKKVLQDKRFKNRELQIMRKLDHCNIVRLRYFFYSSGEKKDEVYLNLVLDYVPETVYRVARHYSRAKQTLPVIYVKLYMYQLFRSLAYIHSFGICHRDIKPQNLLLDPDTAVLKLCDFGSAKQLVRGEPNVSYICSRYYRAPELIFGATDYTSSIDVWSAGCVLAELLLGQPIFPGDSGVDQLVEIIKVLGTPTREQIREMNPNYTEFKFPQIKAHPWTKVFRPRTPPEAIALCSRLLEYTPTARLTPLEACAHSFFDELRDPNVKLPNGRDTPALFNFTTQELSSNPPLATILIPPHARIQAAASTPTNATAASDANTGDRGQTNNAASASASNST
extracellular-signal-regulated kinase 2, sequence (P28482 whole entry): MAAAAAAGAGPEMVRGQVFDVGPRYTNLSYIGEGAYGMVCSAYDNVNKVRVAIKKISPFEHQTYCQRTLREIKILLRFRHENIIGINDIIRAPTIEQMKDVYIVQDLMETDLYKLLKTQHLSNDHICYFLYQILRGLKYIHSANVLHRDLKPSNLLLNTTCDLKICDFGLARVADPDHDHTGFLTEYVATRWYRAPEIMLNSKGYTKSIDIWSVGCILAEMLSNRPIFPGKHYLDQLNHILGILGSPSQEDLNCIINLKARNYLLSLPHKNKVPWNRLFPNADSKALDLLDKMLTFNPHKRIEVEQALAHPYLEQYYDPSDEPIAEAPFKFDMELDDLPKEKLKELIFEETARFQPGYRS
stress-activated protein kinase 2a, sequence (Q16539 whole entry): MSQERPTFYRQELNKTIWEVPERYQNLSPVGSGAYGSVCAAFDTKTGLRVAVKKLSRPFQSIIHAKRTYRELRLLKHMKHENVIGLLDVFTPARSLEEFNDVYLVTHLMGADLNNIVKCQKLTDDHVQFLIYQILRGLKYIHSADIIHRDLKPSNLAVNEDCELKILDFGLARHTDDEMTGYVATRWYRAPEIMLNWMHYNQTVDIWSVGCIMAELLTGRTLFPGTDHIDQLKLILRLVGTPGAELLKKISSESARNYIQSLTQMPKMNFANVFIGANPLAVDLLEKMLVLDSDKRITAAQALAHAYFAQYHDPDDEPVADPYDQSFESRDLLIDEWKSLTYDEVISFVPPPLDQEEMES

## Cc1nc(N)sc1-c1ccnc(Nc2cccc(Br)c2)n1 [Compound 16, [4-(2-Amino-4-methyl-thiazol-5-yl)-pyrimidin-2-yl]-(3-bromo-phenyl)-amine]
SK-N-MC
  IC50: 420 nM
WI38
  IC50: > 5000 nM
HL60
  IC50: 430 nM
HCT-116
  IC50: 960 nM
Messa
  IC50: 590 nM
SKUT-1
  IC50: 640 nM
Tumour cells
  IC50: 680 nM
AGS
  IC50: 1110 nM
Hela
  IC50: 560 nM
IMR-90
  IC50: > 5000 nM
CDK4/cyclin D1
  IC50: 1770 nM
Messa-Dx5
  IC50: 590 nM
DU-145
  IC50: 1750 nM
A549; [7]
  IC50: 1.32 µM
A549; [8]
  IC50: 0.82 µM
CCRF-CEM
  IC50: 500 nM
HT29; [9]
  IC50: 0.25 µM
HT29; [10]
  IC50: 0.66 µM
nci-H460
  IC50: 280 nM
SKUT-1B
  IC50: 300 nM
Lovo
  IC50: 210 nM
CDK2/cyclin E
  IC50: 0.09 µM
H1299
  IC50: 1060 nM
K562
  IC50: 540 nM
Saos-2; [11]
  IC50: 0.73 µM
Saos-2; [12]
  IC50: 0.81 µM
Hs27
  IC50: > 5000 nM
Hacat
  IC50: 500 nM

## Cc1nc(C)c(-c2ccnc(Nc3ccc(N(C)C)c(Cl)c3)n2)s1 [Compound 26, 2-[N-(4-N,N-Dimethylamino-3-chlorophenyl)]-4-(2,4-dimethylthiazol-5-yl)-pyrimidineamine]
[1]
  IC50: 2200 nM
Protein kinase C α
  IC50: 24000 nM
[2]
  IC50: 20000 nM
[3]
  IC50: 32000 nM
Ableson tyrosine kinase
  IC50: 1600 nM
[4]
  IC50: 86000 nM
[5]
  IC50: 69000 nM
A549; [8]
  IC50: 0.29 µM
Protein kinase B
  IC50: 6300 nM
HT29; [10]
  IC50: 0.15 µM
[6]
  IC50: 4800 nM
polo-like kinase 1
  IC50: > 100000 nM
Saos-2; [12]
  IC50: 0.32 µM

## Cc1nc(N)sc1-c1ccnc(Nc2ccc(CCO)cc2)n1 [Compound 15, 2-{4-[4-(2-Amino-4-methyl-thiazol-5-yl)-pyrimidin-2-ylamino]-phenyl}-ethanol]
SK-N-MC
  IC50: 580 nM
WI38
  IC50: > 5000 nM
HL60
  IC50: 2870 nM
HCT-116
  IC50: 690 nM
Messa
  IC50: 550 nM
SKUT-1
  IC50: 810 nM
Tumour cells
  IC50: 1030 nM
AGS
  IC50: 1050 nM
Hela
  IC50: 550 nM
IMR-90
  IC50: > 5000 nM
CDK4/cyclin D1
  IC50: 1360 nM
Messa-Dx5
  IC50: 140 nM
DU-145
  IC50: 980 nM
A549; [7]
  IC50: 0.95 µM
A549; [8]
  IC50: 3.04 µM
SJSA-1
  IC50: 1500 nM
CCRF-CEM
  IC50: 850 nM
MCF-7
  IC50: 4740 nM
HT29; [9]
  IC50: 0.41 µM
HT29; [10]
  IC50: 3.8 µM
nci-H460
  IC50: 600 nM
SKUT-1B
  IC50: 390 nM
Lovo
  IC50: 230 nM
CDK2/cyclin E
  IC50: 0.43 µM
H1299
  IC50: 630 nM
K562
  IC50: 1350 nM
Saos-2; [11]
  IC50: 0.93 µM
Saos-2; [12]
  IC50: 2.84 µM
Hs27
  IC50: > 5000 nM
Hacat
  IC50: 730 nM
